From US11154519B2, “Inhibitors and their uses” (MEDICAL RESEARCH COUNCIL, priority 2015, dated 2021)

Key:
PPP1R15A-PP1 complex = target: T1, PPP1R15A-PP1 complex (Homo sapiens, UniProt O75807); assay: SPR steady-state binding to R15A-PP1 holophosphatase; conditions: SPR steady-state, MBP-R15A325-636-His captured on bio-PP1c, 10° C.; read-out: R15A (KD)
T1 construct: cDNAs encoding amino acids 325-636 of PPP1R15A and 340-698 of PPP1R15B were His-tagged and cloned into pMAL-c5x; made in house; host or cells: R15A: E. coli BL21-Gold (pMAL-c5x); PP1γ: Sf9 insect cells (baculovirus, pDW464)
Protocol: PPP1R15A^325-636 and PPP1R15B^340-698 were expressed and purified as follows: the cDNAs encoding amino acids 325-636 of PPP1R15A and 340-698 of PPP1R15B were His-tagged and cloned into pMAL-c5x. Recombinant PPP1R15A/B were expressed in BL21-Gold cells and purified by affinity chromatography on a HisTrap HP column (GE Healthcare), followed by a MBPTrap HP column (GE Healthcare). The proteins were analyzed on BOLT SDS-PAGE 4-12% Bis-Tris gels (Life Technologies) stained with SimplyBlue SafeStain (Life Technologies). cDNA encoding for human PP1γ was cloned into the baculovirus transfer vector pDW464 to add a biotin acceptor peptide (BAP). The vector also encodes for the E. coli biotin holoenzyme synthetase (BirA), so that BAP-tagged proteins can be biotinylated in vivo in Spodoptere frugiperda (Sf9) insect cells (Duffy et al., Anal. Biochem., 262, 122-128, 1998). The Bac-to-Bac baculovirus expression system (Life Technologies) was used to generate the recombinant bacmid DNA and Sf9 insect cells were used to amplify the viral stocks Cultures were harvested by centrifuging at 1,200 g for 15 minutes, cell pellets were resuspended in lysis buffer (50 mM Tris pH 7.4, 150 mM NaCl, 0.2% Triton, 5% Glycerol, 1 PiC tablet (Roche) per 50 ml and 0.2 mM PMSF) and followed by gentle sonication. The protein was first purified on a 5 ml HiTrap Q HP column (GE Healthcare) followed by a HiLoad 16/600 Superdex 200 column (GE Healthcare). The positive fractions confirmed by SDS-PAGE and western blot were pooled, concentrate to ˜1 μM and stored at −80° C.
A Biacore T200 (GE Healthcare) system was used for all experiments and biotinylated PP1 was captured using a Sensor Chip SA (GE Healthcare, catalog no BR-1005-31). The streptavidin coated surface was activated by 1 min injection with a solution of 50 mM NaOH and 1 M NaCl. Biotin-PP1 was diluted in the running buffer (50 mM Tris pH 7.5, 100 mM NaCl, 0.1 mM EGTA, 1 mM MnCl2, 0.05% Tween 20) and injected at approximately 300 nM concentration directly to streptavidin coated surface for 100 sec or to reach immobilization level of biotin-PP1 corresponding to ˜7000 RU. A blank immobilization was performed for one of the SA sensor chip surface to use as a reference.
With minor deviations, the same procedure and conditions were used in all binding experiments. Small molecules were stored as 50 mM stock solutions in 100% DMSO. Prior to determining binding constants, serial dilutions of either 12 or 8 concentrations of the compounds were prepared in the running buffer in a 96-well plate. Prior to each compound dilution series the regulatory subunit, R15A or R15B, was diluted to […] in the running buffer and captured on the biotin-PP1 surface, to form the holophosphatase complex on the sensor chip surface. Then, without regenerating the surface, the compound dilution series was injected onto the surface of the chip Sensorgrams were analyzed using the Biacore T200 evaluation software and the binding constants determined based on a steady-state model. Kinetic experiments are carried out using different concentrations of the compound and their respective equilibrium binding levels determined.
Surface Plasmon Resonance (SPR) was used to measure the binding affinity of compounds to the PPP1R15A/B-PP1 phosphatase complex. Biotin acceptor peptide (BAP) was fused to the N-terminus of PP1γ, which enables the biotinylation of the BAP-tagged protein in Sf9 insect cells. After purification the BAP-PP1γ protein was captured on a streptavidin sensor chip (SA-chip, GE healthcare) to a response level of ˜5.000 RU. Using controlled biotinylation enables orientated and uniform immobilization on the sensor chip surface. The PP1γ was then used to capture PPP1R15A/B and form a holophosphatase complex on the surface of the streptavidin chip. This complex can then be used to test binding of compounds. 10 μM PPP1R15A/B protein concentration was used to form the holophosphatase complex during a 80 s injection. […]

R15A or R15B = assay: Selective binding towards R15A or R15B (based on SPR); parameters: species or system human
Protocol: In one embodiment, the compounds of formula IB inhibit PPP1R15A and PPP1R15B. Inhibition of PPP1R15A and PPP1R15B can be determined from binding analysis. For example, binding can be analysed using SPR (surface plasmon resonance) to obtain KD values. A PPP1R15A and PPP1R15B inhibitor may be defined as a compound where the difference in KD values between R15A and R15B is no more than about 3 fold.
Small molecules were stored as 50 mM stock solutions in 100% DMSO. Prior to determining binding constants, serial dilutions of either 12 or 8 concentrations of the compounds were prepared in the running buffer in a 96-well plate. Prior to each compound dilution series the regulatory subunit, MBP-R15A^325-636-His or MBP-R15B^340-698-His, was diluted to 10 μM in the running buffer and captured on the bio-PP1c surface at a flow rate of 30 μl/min for 1 minute to form the holophosphatase complex on the sensor chip surface. This was followed by 1 minute stabilization period, to wash off any unspecific binding. Then, without regenerating the surface, the compound dilution series was injected onto the surface of the chip at a flow rate of 30 μl/min for 1 minute, followed by 2 minutes dissociation time. After each dilution series the surface was regenerated using 3 M NaCl for 90 seconds. After regeneration, SPR responses generally returned to base levels and the bio-PP1c surface was ready for the next compound dilution series. In order to be able to correct for small variations in DMSO concentration between samples, eight solvent samples ranging from 0.06 to 8% DMSO were injected every 50th cycle. The flow cell temperature was 10° C.
Sensorgrams were analyzed using the Biacore T200 evaluation software and the binding constants determined based on a steady-state model. Kinetic experiments are carried out using different concentrations of the compound and their respective equilibrium binding levels determined.

T1 sequence (O75807 325-636): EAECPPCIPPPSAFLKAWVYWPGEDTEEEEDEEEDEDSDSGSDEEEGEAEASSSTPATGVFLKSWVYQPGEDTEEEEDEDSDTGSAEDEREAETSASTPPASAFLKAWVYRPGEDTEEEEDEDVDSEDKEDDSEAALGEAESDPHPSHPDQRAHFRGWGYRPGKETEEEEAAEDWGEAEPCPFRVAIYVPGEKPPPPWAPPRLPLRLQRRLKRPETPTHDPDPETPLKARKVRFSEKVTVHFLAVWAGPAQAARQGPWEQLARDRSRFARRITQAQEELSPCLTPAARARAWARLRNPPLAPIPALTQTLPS
T1 sequence (P36873 whole entry partner, the tested form may be a part): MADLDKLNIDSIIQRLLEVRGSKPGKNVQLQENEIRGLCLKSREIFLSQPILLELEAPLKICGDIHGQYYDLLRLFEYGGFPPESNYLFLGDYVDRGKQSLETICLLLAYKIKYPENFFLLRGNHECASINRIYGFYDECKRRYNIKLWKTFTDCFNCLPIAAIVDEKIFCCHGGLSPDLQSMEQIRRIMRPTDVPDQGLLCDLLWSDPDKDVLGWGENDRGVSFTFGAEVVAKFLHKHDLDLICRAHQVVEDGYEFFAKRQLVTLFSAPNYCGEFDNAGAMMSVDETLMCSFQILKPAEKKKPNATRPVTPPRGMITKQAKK

| SMILES | Kd (PPP1R15A-PP1 complex) | Selective binding towards R15A or R15B (based on SPR) (R15A or R15B) |
| --- | --- | --- |
| [H]/N=C(\N)NN=Cc1cc(Cl)c(F)c(Cl)c1 [Compound 5, (E)-2-(3,5-dichloro-4-fluorobenzylidene)hydrazine-1-carboximidamide] | 8.45 ± 0.41 µM | R15AB (A PPP1R15A and PPP1R15B inhibitor may be defined as a compound where the difference in KD values between R15A and R15B is no more than about 3 fold) |
| [H]/N=C(\N)NN=Cc1ccc(Cl)c(Cl)c1 [Compound 11, (E)-2-(3,4-dichlorobenzylidene)hydrazine-1-carboximidamide] | 16.2 ± 2.1 µM | R15AB (A PPP1R15A and PPP1R15B inhibitor may be defined as a compound where the difference in KD values between R15A and R15B is no more than about 3 fold) |
| [H]/N=C(\N)NN=Cc1cc(F)ccc1Cl [Compound 20, (E)-2-(2-chloro-5-fluorobenzylidene)hydrazine-1-carboximidamide] | 5.67 ± 0.72 µM | R15AB (A PPP1R15A and PPP1R15B inhibitor may be defined as a compound where the difference in KD values between R15A and R15B is no more than about 3 fold) |
| N=C(N)N/N=C/c1cc(Cl)c(Cl)cc1F [Compound 18, (E)-2-(4,5-dichloro-2-fluorobenzylidene)hydrazine-1-carboximidamide] | 10.2 ± 1.62 µM | R15AB (A PPP1R15A and PPP1R15B inhibitor may be defined as a compound where the difference in KD values between R15A and R15B is no more than about 3 fold) |
| [H]/N=C(\N)NN=Cc1cccnc1Cl [Compound 21, (E)-2-((2-chloropyridin-3-yl)methylene)hydrazine-1-carboximidamide] | 0.832 µM | R15AB (A PPP1R15A and PPP1R15B inhibitor may be defined as a compound where the difference in KD values between R15A and R15B is no more than about 3 fold) |
| [H]/N=C(\N)NN=Cc1ccc(F)c(Cl)c1Cl [Compound 14, (E)-2-(2,3-dichloro-4-fluorobenzylidene)hydrazine-1-carboximidamide] | 5.45 ± 1.48 µM | R15AB (A PPP1R15A and PPP1R15B inhibitor may be defined as a compound where the difference in KD values between R15A and R15B is no more than about 3 fold) |
| [H]/N=C(\N)NN=Cc1cccc(Cl)c1 [Compound 24, (E)-2-(3-chlorobenzylidene)hydrazine-1-carboximidamide] | 18.1 ± 7.57 µM | R15AB (A PPP1R15A and PPP1R15B inhibitor may be defined as a compound where the difference in KD values between R15A and R15B is no more than about 3 fold) |
| [H]/N=C(\N)NN=Cc1cc(Cl)cc(Cl)c1 [Compound 34, (E)-2-(3,5-dichlorobenzylidene)hydrazine-1-carboximidamide] | 17.2 ± 1.9 µM | R15AB (A PPP1R15A and PPP1R15B inhibitor may be defined as a compound where the difference in KD values between R15A and R15B is no more than about 3 fold) |
| [H]/N=C(\N)NN=Cc1cc(F)c(Cl)cc1Cl [Compound 7, (E)-2-(2,4-dichloro-5-fluorobenzylidene)hydrazine-1-carboximidamide] | 10.2 ± 2.57 µM | R15AB (A PPP1R15A and PPP1R15B inhibitor may be defined as a compound where the difference in KD values between R15A and R15B is no more than about 3 fold) |
